Where a name gives a salt, the structure may show the parent alone.

For 20 compounds, IC50 results are on record in US12187742B2 (XRAD Therapeutics, Inc., priority 2018, dated 2025).

One assay deals with ATM (Homo sapiens (Human), UniProt Q13315). As to the kind of experiment: ATM in Cell Western Assay (pKAP1 in etoposide-treated MCF-7 cells). The format is cell-based. As to conditions: MCF-7 cells, etoposide 100 μM, 1 hr, pKAP1 readout. Summed up: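 Cells received compounds in a 10-dose, 3-fold series from a 1 μM final top concentration, then 100 μM etoposide, for 1 hr at 37° C. They were then fixed with paraformaldehyde and permeabilized with 0.1% Triton X-100. After immunostaining, plates were scanned on an infrared imager.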

The target in another assay is DNA-PK (Homo sapiens (Human), UniProt P78527). The assay can be described thus: DNA-PK Enzyme-Linked Immunosorbent Assay (phosphorylation of GST-p53 (1-101) peptide). Type of assay: biochemical. As to conditions: ELISA, ATP 20 μM. The protocol:
Assay of Compounds ATM and DNA-PK Inhibition
remove wash solution, turn plate upside down onto a thin paper towel and centrifuge at 1000 rpm for 1 min to absorb all wash buffer. Clean the bottom of plate with moist lint free paper. Scan plate immediately using ODYSSEY CLx (LI-COR) for the best results. DNA-PK Enzyme-Linked Immunosorbent Assay:
On day one, coat 96-well plate (ThermoFisher. Cat #: 442404) with GST-p53 (1-101) peptide (purified by Pharmaron, BCS department) by diluting 3 μg of GST-p53 each well with 0.1 M Na2CO3/NaHCO3, pH 9.6. Incubate the plate overnight at 4° C. The second day, remove coating buffer, wash 2× with PBST (1×PBS containing 0.1% Tween-20). Then add DNA-PK enzyme solution (Invitrogen, #PR9107A; the final DNA-PK concentration is 0.1 μg/mL), series dilution compounds (the final top concentration is 100 nM, 3 fold series dilution, with total 10 doses) and ATP solution (the final ATP concentration is 20 μM) to the 96-well plate. Incubate the plate at 25° C. for 1 hour. Then wash 3× with PBST (1×PBS containing 0.1% Tween-20). Block the plate with PBST+ 1% BSA at 4° C. overnight. The third day, wash 4× with PBST (1×PBS containing 0.1% Tween-20). Then add Phospho-p53 primary antibody (cell signaling Technology, #9286, Phospho-p53 (Ser15) (16G8) Mouse mAb) (1/1000) to each well. Seal with plate and incubate the plate for 1 h at 37° C. Wash 4× with PBST (1×PBS containing 0.1% Tween-20), add 100 μL of HRP-linked secondary antibody (Cell signaling Technology, #7076, Anti-mouse IgG, HRP-linked Antibody) (1/1000) to each well. Seal with tape and incubate the plate for 30 min at 37° C. Wash 4× with PBST (1×PBS containing 0.1% Tween-20), add 100 μL of TMB (Cell signaling Technology, #7004) substrate to each well. Seal with tape and incubate the plate for 10 min at 37° C. Then add 100 μL of Stop solution (Cell signaling Technology, #7002) to each well. Read the plate at 450 nm to detect absorption.

Chain of ATM (Q13315 whole entry): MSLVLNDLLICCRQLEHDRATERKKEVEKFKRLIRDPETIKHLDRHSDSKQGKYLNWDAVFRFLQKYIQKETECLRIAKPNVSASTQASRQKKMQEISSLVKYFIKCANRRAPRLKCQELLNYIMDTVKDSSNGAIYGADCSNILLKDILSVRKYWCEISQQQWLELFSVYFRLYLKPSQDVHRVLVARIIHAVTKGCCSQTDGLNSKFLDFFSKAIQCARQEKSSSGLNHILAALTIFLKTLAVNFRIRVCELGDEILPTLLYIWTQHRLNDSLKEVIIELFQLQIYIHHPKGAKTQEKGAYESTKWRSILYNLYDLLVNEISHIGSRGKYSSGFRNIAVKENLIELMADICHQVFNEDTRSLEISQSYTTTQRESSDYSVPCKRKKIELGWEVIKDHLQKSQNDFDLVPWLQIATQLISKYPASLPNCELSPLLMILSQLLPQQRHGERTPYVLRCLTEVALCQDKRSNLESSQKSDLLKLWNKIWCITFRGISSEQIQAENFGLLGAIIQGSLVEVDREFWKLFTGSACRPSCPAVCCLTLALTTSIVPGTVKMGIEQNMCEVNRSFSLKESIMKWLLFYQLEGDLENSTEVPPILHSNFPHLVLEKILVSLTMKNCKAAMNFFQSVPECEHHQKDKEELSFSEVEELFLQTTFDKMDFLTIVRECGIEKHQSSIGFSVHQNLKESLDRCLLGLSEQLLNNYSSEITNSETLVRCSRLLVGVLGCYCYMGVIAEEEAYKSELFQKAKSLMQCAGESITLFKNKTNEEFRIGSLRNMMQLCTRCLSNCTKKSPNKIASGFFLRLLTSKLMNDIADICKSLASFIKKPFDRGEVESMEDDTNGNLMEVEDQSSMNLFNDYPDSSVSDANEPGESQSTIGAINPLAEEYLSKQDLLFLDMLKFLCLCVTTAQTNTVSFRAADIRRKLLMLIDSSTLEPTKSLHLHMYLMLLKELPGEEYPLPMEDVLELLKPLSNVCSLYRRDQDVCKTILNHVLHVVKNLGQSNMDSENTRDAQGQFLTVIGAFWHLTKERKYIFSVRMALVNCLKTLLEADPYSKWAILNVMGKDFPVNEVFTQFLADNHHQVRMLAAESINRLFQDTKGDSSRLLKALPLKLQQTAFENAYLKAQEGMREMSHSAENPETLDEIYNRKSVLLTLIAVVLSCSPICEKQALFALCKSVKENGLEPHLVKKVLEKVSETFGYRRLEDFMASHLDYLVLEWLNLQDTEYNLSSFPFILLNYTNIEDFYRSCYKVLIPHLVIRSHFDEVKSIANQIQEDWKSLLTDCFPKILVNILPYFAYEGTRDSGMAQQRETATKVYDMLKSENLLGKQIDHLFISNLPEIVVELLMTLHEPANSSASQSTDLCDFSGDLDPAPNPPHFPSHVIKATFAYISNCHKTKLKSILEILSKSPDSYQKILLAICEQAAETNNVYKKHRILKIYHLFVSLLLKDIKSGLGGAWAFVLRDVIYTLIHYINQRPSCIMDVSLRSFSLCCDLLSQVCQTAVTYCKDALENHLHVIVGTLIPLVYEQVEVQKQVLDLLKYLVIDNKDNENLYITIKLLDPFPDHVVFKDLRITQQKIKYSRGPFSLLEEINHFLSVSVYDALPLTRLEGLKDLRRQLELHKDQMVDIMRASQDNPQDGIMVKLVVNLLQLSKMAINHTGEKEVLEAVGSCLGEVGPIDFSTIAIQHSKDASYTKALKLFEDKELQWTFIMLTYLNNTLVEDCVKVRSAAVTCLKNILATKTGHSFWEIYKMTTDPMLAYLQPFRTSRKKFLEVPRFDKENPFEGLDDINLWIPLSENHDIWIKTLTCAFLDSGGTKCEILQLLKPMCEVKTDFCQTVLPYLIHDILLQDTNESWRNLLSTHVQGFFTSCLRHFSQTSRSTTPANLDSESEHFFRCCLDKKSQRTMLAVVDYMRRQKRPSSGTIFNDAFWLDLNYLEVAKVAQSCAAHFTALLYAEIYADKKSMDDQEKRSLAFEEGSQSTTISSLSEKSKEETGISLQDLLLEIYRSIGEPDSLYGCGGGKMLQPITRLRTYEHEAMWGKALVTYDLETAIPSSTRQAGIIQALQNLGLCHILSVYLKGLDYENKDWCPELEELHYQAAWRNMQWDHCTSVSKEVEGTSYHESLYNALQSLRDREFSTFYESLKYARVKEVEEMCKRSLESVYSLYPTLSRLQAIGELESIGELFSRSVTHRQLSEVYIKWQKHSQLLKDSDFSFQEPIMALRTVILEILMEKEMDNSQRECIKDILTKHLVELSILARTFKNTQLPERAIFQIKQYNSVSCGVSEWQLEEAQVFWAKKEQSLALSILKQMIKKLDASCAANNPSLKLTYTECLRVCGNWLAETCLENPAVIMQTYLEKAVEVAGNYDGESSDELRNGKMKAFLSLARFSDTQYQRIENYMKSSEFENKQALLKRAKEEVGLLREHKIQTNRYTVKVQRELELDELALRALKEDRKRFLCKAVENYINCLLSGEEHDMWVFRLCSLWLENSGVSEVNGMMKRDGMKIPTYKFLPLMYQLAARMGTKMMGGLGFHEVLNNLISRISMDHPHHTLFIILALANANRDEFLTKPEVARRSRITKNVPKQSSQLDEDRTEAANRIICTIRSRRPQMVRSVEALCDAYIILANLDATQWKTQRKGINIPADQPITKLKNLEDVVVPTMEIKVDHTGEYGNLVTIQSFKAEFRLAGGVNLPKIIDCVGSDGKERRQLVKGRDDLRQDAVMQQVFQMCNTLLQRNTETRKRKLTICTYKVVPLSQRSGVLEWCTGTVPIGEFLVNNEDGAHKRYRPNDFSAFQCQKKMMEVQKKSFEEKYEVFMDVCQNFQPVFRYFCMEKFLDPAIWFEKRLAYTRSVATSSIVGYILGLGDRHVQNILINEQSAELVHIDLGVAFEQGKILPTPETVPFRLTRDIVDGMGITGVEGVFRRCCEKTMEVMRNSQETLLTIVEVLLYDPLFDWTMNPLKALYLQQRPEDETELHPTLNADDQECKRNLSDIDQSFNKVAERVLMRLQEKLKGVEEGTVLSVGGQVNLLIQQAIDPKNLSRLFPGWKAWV

On to `Cc1ncc(-c2ccc3ncc4c(c3c2)C2(CC2)C(=O)N4C)cc1NS(=O)(=O)c1ccccc1` [Example 24, N-(2-Methyl-5-(3′-methyl-2′-oxo-2′,3′-dihydrospiro[cyclopropane-1,1′-pyrrolo[2,3-c]quinolin]-8′-yl)pyridin-3-yl)benzenesulfonamide], for which the IC50 was 1 to 100 nM on ATM and under 0.5 nM on DNA-PK.

With `CN(C)CCCOc1ncc(-c2ccc3ncc4c(c3c2)C2(CC2)C(=O)N4C)cc1NS(=O)(=O)C1CC1` [Example 29, N-(2-(3-(Dimethylamino)propoxy)-5-(3′-methyl-2′-oxo-2′,3′-dibydrospiro [cyclopropane-1,1′-pyrrolo[2,3-c]quinolin]-8′-yl)pyridin-3-yl) cyclopropanesulfonamide], the IC50 on ATM and on DNA-PK was 1 to 100 nM in each case.

`CN(C)CCCOc1ncc(-c2ccc3ncc4c(c3c2)C2(CC2)C(=O)N4Cc2cn[nH]c2)cc1NS(=O)(=O)c1ccccc1` [Example 30, N-(5-(3′-((1H-Pyrazol-4-yl)methyl)-2′-oxo-2′,3′-dihydrospiro[cyclopropane-1,1′-pyrrolo[2,3-c]quinolin]-8′-yl)-2-(3-(dimethylamino)propoxy)pyridin-3-yl)benzenesulfonamide]: the half-maximal inhibitory concentration (IC50) on ATM and on DNA-PK was 1 to 100 nM each time.

As for `CN(C)CCCOc1ncc(-c2ccc3ncc4c(c3c2)C2(COC2)C(=O)N4C)cc1NS(=O)(=O)c1ccccc1` [Example 32, N-(2-(3-(Dimethylamino)propoxy)-5-(3′-methyl-2′-oxo-2′,3′-dihydrospiro[oxetane-3,1′-pyrrolo[2,3-c]quinolin]-8′-yl)pyridin-3-yl)benzenesulfonamide], the IC50 against ATM and at DNA-PK was 1 to 100 nM throughout.

For the compound `CN(C)CCCOc1ncc(-c2ccc3ncc4c(c3c2)C2(CCOCC2)C(=O)N4C)cc1NS(=O)(=O)c1ccccc1` [Example 33, N-(2-(3-(Dimethylamino)propoxy)-5-(3′-methyl-2′-oxo-2,2′,3′-,3′-,5,6-hexahydrospiro[pyran-4,1′-pyrrolo[2,3-c]quinolin]-8′-yl)pyridin-3-yl)benzenesulfonamide], the IC50 at ATM and on DNA-PK was 1 to 100 nM each time.

Consider `CN(C)CCCCOc1ncc(-c2ccc3ncc4c(c3c2)C2(CC2)C(=O)N4C)cc1NS(=O)(=O)c1ccccc1` [Example 35, N-(2-(4-(Dimethylamino)butoxy)-5-(3′-methyl-2′-oxo-2′,3′-dihydrospiro [cyclopropane-1,1′-pyrrolo[2,3-c]quinolin]-8′-yl)pyridin-3-yl)benzenesulfonamide], for which the IC50 was 1 to 100 nM against ATM and 0.5 to 1 nM at DNA-PK.

Regarding `CN(C)CCCOc1ncc(-c2ccc3ncc4c(c3c2)C2(CC2)C(=O)N4CC2COC2)cc1NS(=O)(=O)c1ccccc1` [Example 37, N-(2-(3-(Dimethylamino)propoxy)-5-(3′-(oxetan-3-ylmethyl)-2′-oxo-2′-3′-dihydrospiro [cyclopropane-1,1′-pyrrolo[2,3-c]quinolin]-8′-yl)pyridin-3-yl)benzenesulfonamide], the IC50 against ATM and at DNA-PK was 1 to 100 nM in each case.

On to `CCN1C(=O)C2(CC2)c2c1cnc1ccc(-c3cnc(OCCCN(C)C)c(NS(=O)(=O)c4ccccc4)c3)cc21` [Example 42, N-(2-(3-(Dimethylamino)propoxy)-5-(3′-ethyl-2′-oxo-2′,3′-dihydrospiro [cyclopropane-1,1′-pyrrolo[2,3-c]quinolin]-8′-yl)pyridin-3-yl)benzenesulfonamide], for which the half-maximal inhibitory concentration (IC50) lay in the range of 1 to 100 nM against ATM and 0.5 to 1 nM on DNA-PK.

With `CNCCOc1ncc(-c2ccc3ncc4c(c3c2)C2(CC2)C(=O)N4C)cc1NS(=O)(=O)c1ccccc1` [Example 43, N-(5-(3′-Methyl-2′-oxo-2′,3′-dihydrospiro [cyclopropane-1,1′-pyrrolo[2,3-c]quinolin]-8′-yl)-2-(2-(methylamino)ethoxy)pyridin-3-yl) benzenesulfonamide], the values for the IC50 at ATM and on DNA-PK were 1 to 100 nM and 0.5 to 1 nM, respectively.

On to `CC(C#N)c1cccc(S(=O)(=O)Nc2cc(-c3ccc4ncc5c(c4c3)C3(CC3)C(=O)N5C)cnc2OCCCN(C)C)c1` (stereo not shown) [Example 46, 3-(1-Cyanoethyl))-N-((2-(3-(Dimethylamino)propoxy)-5-(3′-methyl-2′-oxo-2′,3′-dihydrospiro [cyclopropane-1,1′-pyrrolo[2,3-c]quinolin]-8′-yl)pyridin-3-yl)benzenesulfonamide], for which the half-maximal inhibitory concentration (IC50) is 1 to 100 nM at ATM and under 0.5 nM on DNA-PK.

`CN(C)CCCOc1ncc(-c2ccc3ncc4c(c3c2)C2(COC2)C(=O)N4C)cc1NS(=O)(=O)C1CC1` [Example 47, N-(2-(3-(Dimethylamino)propoxy)-5-(3′-methyl-2′-oxo-2′,3′-dihydrospiro [oxetane-3,1′-pyrrolo[2,3-c]quinolin]-8′-yl)pyridin-3-yl)cyclopropanesulfonamide]: the half-inhibitory concentration (IC50) against ATM and against DNA-PK was 1 to 100 nM throughout.

Consider `CN1C(=O)C2(CC2)c2c1cnc1ccc(-c3cnc(N)nc3)cc21` [Example 48, 8′-(2-Aminopyrimidin-5-yl)-3′-methylspiro [cyclopropane-1,1′-pyrrolo [2,3-c]quinolin]-2′(3′-H)-one], for which the concentration for half-maximal inhibition (IC50) lay in the range of 1 to 100 nM against ATM and 0.5 to 1 nM at DNA-PK.

Turning to `CN1CCN(c2ncc(-c3ccc4ncc5c(c4c3)C3(CC3)C(=O)N5C)cc2NS(=O)(=O)c2ccccc2)CC1` [Example 49, N-(5-(3′-Methyl-2′-oxo-2′,3′-dihydrospiro[cyclopropane-1,1′-pyrrolo[2,3-c]quinolin]-8′-yl)-2-(4-methylpiperazin-1-yl)pyridin-3-yl)benzenesulfonamide], the half-maximal inhibitory concentration (IC50) was 0.5 to 1 nM on ATM and under 0.5 nM at DNA-PK.

As for `CN1CCCN(c2ncc(-c3ccc4ncc5c(c4c3)C3(CC3)C(=O)N5C)cc2NS(=O)(=O)c2ccccc2)CC1` [Example 53, N-(2-(4-Methyl-1,4-diazepan-1-yl)-5-(3′-methyl-2′-oxo-2′,3′-dihydrospiro[cyclopropane-1,1′-pyrrolo[2,3-c]quinolin]-8′-yl)pyridin-3-yl)benzenesulfonamide], the IC50 against ATM and on DNA-PK was 1 to 100 nM in each case.

Take `COc1cc(-c2ccc3ncc4c(c3c2)C2(CC2)C(=O)N4C)cnc1OCCCN(C)C` [Example 54, 8′-(6-(3-(Dimethylamino)propoxy)-5-methoxypyridin-3-yl)-3′-methylspiro[cyclopropane-1,1′-pyrrolo[2,3-c]quinolin]-2′(3′-H)-one]: the IC50 against ATM was 0.5 to 1 nM; against DNA-PK, over 100 nM.

Turning to `CN(C)CCCCOc1ncc(-c2ccc3ncc4c(c3c2)C2(CC2)C(=O)N4C)cc1NS(=O)(=O)C1CC1` [Example 56, N-(2-(4-(Dimethylamino)butoxy)-5-(3′-methyl-2′-oxo-2′,3′-dihydrospiro [cyclopropane-1,1′-pyrrolo[2,3-c]quinolin]-8′-yl)pyridin-3-yl)cyclopropanesulfonamide], the IC50 on ATM and on DNA-PK was 1 to 100 nM throughout.

`Cc1cc(-c2ccc3ncc4c(c3c2)C2(CC2)C(=O)N4C)cnc1OCCCN(C)C` [Example 57, 8′-(6-(3-(Dimethylamino)propoxy)-5-methylpyridin-3-yl)-3′-methylspiro[cyclopropane-1,1′-pyrrolo[2,3-c]quinolin]-2′(3′-H)-one]: the half-inhibitory concentration (IC50) on ATM and against DNA-PK was 1 to 100 nM each time.

As to `CN1C(=O)C2(CC2)c2c1cnc1ccc(-c3cnc(OCCCN4CCCC4)c(NS(=O)(=O)c4ccccc4)c3)cc21` [Example 58, N-(5-(3′-Methyl-2′-oxo-2′,3′-dihydrospiro[cyclopropane-1,1′-pyrrolo[2,3-c]quinolin]-8′-yl)-2-(3-(pyrrolidin-1-yl)propoxy)pyridin-3-yl)benzenesulfonamide], the 50% inhibitory concentration (IC50) on ATM and at DNA-PK was under 0.5 nM in each case.

As for `CN(C)CCCOc1ncc(-c2ccc3ncc4c(c3c2)C2(CC2)C(=O)N4C)cc1OCc1ccccc1` [Example 59, 8′-(5-(Benzyloxy)-6-(3-(dimethylamino)propoxy)pyridin-3-yl)-3methylspiro [cycloproane-1,1′-pyrrolo [2,3-c]quinolin]-2′(3′-)-one], the concentration for half-maximal inhibition (IC50) against ATM and on DNA-PK was 1 to 100 nM throughout.

Turning to `CCS(=O)(=O)Nc1cc(-c2ccc3ncc4c(c3c2)C2(CC2)C(=O)N4C)cnc1OCCCN(C)C` [Example 61, N-(2-(3-(Dimethylamino)propoxy)-5-(3′-methyl-2′-oxo-2′,3′-dihydrospiro [cyclopropane-1,1′-pyrrolo[2,3-c]quinolin]-8′-yl)pyridin-3-ylethanesulfonamide hydrochloride], the IC50 against ATM and against DNA-PK was 1 to 100 nM each time.
